According to article PMC10095747, “Modulatory Effects of Atractylodin and β-Eudesmol on Human Cytochrome P450 Enzymes: Potential Drug-Drug Interactions” (Molecules, 2023):
pIC50: −log10 of the molar value. Like-named read-outs stand apart in the source and are kept apart here.

Experiments:
rCYP2C9 = rCYP2C9 (Homo sapiens, UniProt P11712); assay: luminogenic P450-Glo CYP450 inhibition assay, rCYP2C9; details: three independent experiments
Text: (§1) The luminescent cytochrome P450 assay was used to determine CYP450-mediated (CYP1A2, 2C9, 2C19, 2D6, and 3A4) metabolism of atractylodin and β-eudesmol. The assay consisted of each recombinant human CYP450 (rCYP450), control membranes lacking P450 activity, a luminogenic CYP450 substrate (luciferin-ME substrate for rCYP1A2, luciferin-H substrate for rCYP2C9, luciferin-H EGE substrate for rCYP2C19, luciferin-ME EGE substrate for rCYP2D6, and luciferin-IPA substrate for rCYP3A4), KPO4 buffer, luciferin free water, NADPH regeneration system, and a luciferin detection reagent. The rCYP450 enzymes were generated from a baculovirus-infected insect cell expression system. The concentrations of the recombinant CYPs used were 0.5 (rCYP1A2 and rCYP2C9), 0.25 (rCYP2C19 and rCYP2D6) or 0.2 (rCYP3A4) pmol (0.5μL) per reaction. […] A luciferin product was produced after adding 25 µL of NADPH Regeneration System (solution A, solution B, and luciferin-free water) and incubated at 37 °C for 10 (rCYP1A2 and rCYP3A4), 20 (rCYP2C19 and rCYP2C9) or 30 (rCYP2D6) minutes. The reaction was stopped and converted to a luminescent signal after adding Luciferin Detection Reagent (50 µL) and incubated at 25 °C for 20 min. The luminescence signals obtained were determined using a Varioskan® Flash microplate reader (Waltham, MA, USA). The magnitude of luminescence in all of the samples represented CYP450 activity. […] All stock solutions were diluted with luciferin-free water until the final concentration of organic solvent was less than 0.25% (v/v) of the total reaction. The concentration range of atractylodin and β-eudesmol used were 2.74–686 µM and 2.25–562 µM, respectively. […] The concentration that inhibited the activity of each rCYP450 by 50% (IC50) was calculated using Calcusyn software (Cambridge, UK). Data are reported as the median (range) of the three independent experiments.

rCYP3A4 = rCYP3A4 (Homo sapiens, UniProt P08684); assay: luminogenic P450-Glo CYP450 inhibition assay, rCYP3A4; details: three independent experiments
Text: as §1

mCYP1A2 mRNA = assay: ex vivo mCYP1A2 mRNA expression in mouse livers (real-time PCR); details: male ICR mice, daily oral 100 mg/kg body weight, vs control
Text: (§2) Eight-week-old male ICR (Imprinting Control Region) mice weighing 35–40 g were used to investigate the modulatory effects of atractylodin and β-eudesmol on mCYP1A2 and mCYP3A11. The study protocol was approved by the Ethics Committee for Animal Research at Thammasat University (protocol number 016/2020). All animals were obtained from Nomura Siam International Co., Ltd. (Bangkok, Thailand). The animals were acclimatized for one week before the experiments. A total of 36 mice were allocated to three groups (i) control group (3 mice), (ii) atractylodin-treated group, and (iii) β-eudesmol-treated group. For atractylodin and β-eudesmol-treated groups, animals were fed with 100 mg/kg body weight of each compound for 1, 7, 14, and 21 (3 mice for each dose). Experiments were performed under the guidelines for the care and use of laboratory animals in a controlled environment of 12 h dark/light cycle, temperature 22 ± 2 °C, and relative humidity 30–70% at the Thammasat University Animal Center. Animals were observed daily for changes in signs and symptoms by a veterinarian. Mice were allowed access to the food pellets and water ad libitum.
Total mRNA was extracted from mouse livers using Trizol according to the manufacturer’s instructions. The concentration of mRNA was quantified by a nanodrop spectrophotometer. The First-Strand cDNA Synthesis Kit was used to generate cDNA from RNA. The CFX96 Touch Real-Time PCR Detection System was used to determine the expressions of mCYP1A2, mCYP3A11, and β-actin genes using the iTaq Universal SYBR Green Supermix. The PCR condition and the delta-delta Ct calculation were according to the previously described article. All primers used in this study were synthesized by Gibthai Co. Ltd. (Bangkok, Thailand).

mCYP1A2 = assay: ex vivo mCYP1A2 protein expression in mouse liver microsomes (western blot); details: daily oral 100 mg/kg body weight
Text: as §2
(§3) Mouse liver samples were cut into small pieces, and the liver microsomes were prepared as described previously. The concentrations of proteins in the microsomes were determined using Pierce™ BCA Protein Assay Kit. mCYP1A2 and mCYP3A11 activities were evaluated based on phenacetin O-deethylation and nifedipine oxidation activities, respectively. The incubation mixture of 500 µL consisted of microsomes, substrate ([…]), and NADPH. […] The final organic solvent concentration in the incubation mixture was not higher than 1%. Each experiment was repeated three times (duplicated each). Determination of the concentrations of metabolites of mCYP1A2 (paracetamol) and mCYP3A11 (dehydronifedipine) in the reaction was performed using HPLC Agilent 1260 Infinity II with mobile gradient phase between methanol and distilled water at an initial ratio of 20:80 (v:v) and UV detection (240 nm). Calibration curves for both CYP450 activities were created over a concentration range of 1–50 µM. Oxidized nifedipine concentrations were determined using HPLC as follows: UV detection at 235 nm with an isocratic mobile phase consisting of methanol and distilled water (70:30, v:v). […] In each analytical batch, quality control (QC) samples were run in duplicate at low, medium, and high concentrations. Acceptance criteria were four out of six QC analyses falling within 100 ± 15% of the nominal values.
The microsomal protein concentration for both mCYP1A2 and […] was 25 μg protein per lane. Proteins were denatured by combining equal volumes of liver microsomes with sample buffer (1:19 (v:v) of 2-mercaptoethanol and 2x Laemmle buffer) and heating at 100 °C for 5 min. Proteins were separated using 12% SDS-PAGE according to their size characteristics before being migrated to nitrocellulose blotting membranes.

mCYP3A11 = assay: ex vivo mCYP3A11 activity in mouse liver microsomes (nifedipine oxidation); details: daily oral 100 mg/kg body weight
Text: Phenacetin and nifedipine are substrates of CYP1A2 and CYP3A11, respectively. Both substrates are converted via the CYP enzyme to paracetamol and dehydronefedipine, respectively. The concentrations of paracetamol and dehydronefedipine were used to determine the activities of mCYP1A2 and mCYP3A11. The effects of atractylodin and β-eudesmol on mCYP1A2 and mCYP3A11 activities were, respectively, determined by measuring paracetamol (mCYP1A2-dependent metabolite) and dehydronifiedipine (mCYP3A11-dependent metabolite) concentrations.
as §2, §3

Chain of rCYP3A4 (P08684 whole entry): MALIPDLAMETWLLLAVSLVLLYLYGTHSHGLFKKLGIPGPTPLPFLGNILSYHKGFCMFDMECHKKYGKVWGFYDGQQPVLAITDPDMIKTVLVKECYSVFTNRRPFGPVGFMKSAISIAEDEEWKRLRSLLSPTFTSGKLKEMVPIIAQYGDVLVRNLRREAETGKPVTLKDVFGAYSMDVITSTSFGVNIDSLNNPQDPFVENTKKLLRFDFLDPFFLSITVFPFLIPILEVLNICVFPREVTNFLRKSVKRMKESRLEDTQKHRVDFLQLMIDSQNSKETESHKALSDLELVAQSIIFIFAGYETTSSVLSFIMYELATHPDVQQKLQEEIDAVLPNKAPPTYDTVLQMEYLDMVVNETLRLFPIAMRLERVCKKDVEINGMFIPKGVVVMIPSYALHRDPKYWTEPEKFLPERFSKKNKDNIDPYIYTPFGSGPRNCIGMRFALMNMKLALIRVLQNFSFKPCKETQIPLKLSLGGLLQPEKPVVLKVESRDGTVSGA
Chain of rCYP2C9 (P11712 whole entry): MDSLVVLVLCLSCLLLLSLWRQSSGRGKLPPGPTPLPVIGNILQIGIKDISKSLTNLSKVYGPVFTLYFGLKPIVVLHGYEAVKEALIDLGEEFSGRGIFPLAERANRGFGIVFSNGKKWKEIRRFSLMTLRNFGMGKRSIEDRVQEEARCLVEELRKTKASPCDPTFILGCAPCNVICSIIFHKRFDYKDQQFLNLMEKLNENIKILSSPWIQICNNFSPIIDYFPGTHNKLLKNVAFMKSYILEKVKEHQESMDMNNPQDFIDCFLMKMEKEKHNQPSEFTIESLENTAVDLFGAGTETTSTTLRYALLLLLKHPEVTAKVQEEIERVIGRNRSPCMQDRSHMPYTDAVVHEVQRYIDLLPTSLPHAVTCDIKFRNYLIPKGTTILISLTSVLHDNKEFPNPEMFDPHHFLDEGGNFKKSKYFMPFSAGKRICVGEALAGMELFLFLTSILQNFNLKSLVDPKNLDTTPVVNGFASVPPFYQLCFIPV

Structure (SMILES): C/C=C/C#CC#C/C=C/c1ccco1 [Atractylodin]
- Median IC50 (Range) rCYP2C9 (rCYP2C9; median (range)): >125 µg/mL
- pIC50 (rCYP2C9; read-out: Median IC50 (Range) rCYP2C9, median (range)): < 3.16
- Median IC50 (Range) rCYP3A4 (rCYP3A4; median (range)): >125 µg/mL
- pIC50 (rCYP3A4; read-out: Median IC50 (Range) rCYP3A4, median (range)): < 3.16
- Fold-changes of mCYP1A2 mRNA levels (mCYP1A2 mRNA; 1 day, 100 mg/kg): 1.6 fold
- Fold-changes of mCYP1A2 mRNA levels (mCYP1A2 mRNA; 1 day, listed as Atactylodin, 100 mg/kg): 1.60 fold
- Fold-changes of mCYP1A2 mRNA levels (mCYP1A2 mRNA; 7 days, 100 mg/kg): 1.2 fold
- Fold-changes of mCYP1A2 mRNA levels (mCYP1A2 mRNA; 7 days, listed as Atactylodin, 100 mg/kg): 1.20 fold
- Fold-changes of mCYP1A2 mRNA levels (mCYP1A2 mRNA; 14 days): 0.89 fold
- Fold-changes of mCYP1A2 mRNA levels (mCYP1A2 mRNA; 21 days): 0.71 fold
- Protein expression ratio of mCYP1A2 (mCYP1A2; 1 day, control 1.5): 1.39
- Protein expression ratio of mCYP1A2 (mCYP1A2; 7 days, control 1.88): 1.55
- Protein expression ratio of mCYP1A2 (mCYP1A2; 14 days, control 2.42): 1.77
- Protein expression ratio of mCYP1A2 (mCYP1A2; 21 days, control 2.20, 100 mg/kg): significantly downregulated
- Protein expression ratio of mCYP1A2 (mCYP1A2; 21 days, control 2.20, listed as Atactylodin, 100 mg/kg): 1.33
- Dehydronifedipine concentration (mCYP3A11 activity) (mCYP3A11; 1 day, control 6.70, 100 mg/kg): significant reduction
- Dehydronifedipine concentration (mCYP3A11 activity) (mCYP3A11; 1 day, control 6.70, listed as Atactylodin, 100 mg/kg): 5.35 µM
- Dehydronifedipine concentration (mCYP3A11 activity) (mCYP3A11; 7 days, control 6.90, 100 mg/kg): significant reduction
- Dehydronifedipine concentration (mCYP3A11 activity) (mCYP3A11; 7 days, control 6.90, listed as Atactylodin, 100 mg/kg): 5.20 µM
- Dehydronifedipine concentration (mCYP3A11 activity) (mCYP3A11; 14 days, control 7.55, 100 mg/kg): significant reduction
- Dehydronifedipine concentration (mCYP3A11 activity) (mCYP3A11; 14 days, control 7.55, listed as Atactylodin, 100 mg/kg): 6.10 µM
- Dehydronifedipine concentration (mCYP3A11 activity) (mCYP3A11; 21 days, control 7.75, 100 mg/kg): significant reduction
- Dehydronifedipine concentration (mCYP3A11 activity) (mCYP3A11; 21 days, control 7.75, listed as Atactylodin, 100 mg/kg): 3.75 µM

Structure (SMILES): C=C1CCC[C@]2(C)CC[C@@H](C(C)(C)O)C[C@@H]12 [β-Eudesmol]
- pIC50 (rCYP2C9; Median IC50 (Range) rCYP2C9, median (range)): 3.27
- pIC50 (rCYP3A4; Median IC50 (Range) rCYP3A4, median (range)): 3.66
- Fold-changes of mCYP1A2 mRNA levels (mCYP1A2 mRNA; 1 day): 2.63 fold
- Fold-changes of mCYP1A2 mRNA levels (mCYP1A2 mRNA; 7 days): 1.44 fold
- Fold-changes of mCYP1A2 mRNA levels (mCYP1A2 mRNA; 14 days): 1.37 fold
- Fold-changes of mCYP1A2 mRNA levels (mCYP1A2 mRNA; 21 days): 0.91 fold
- Protein expression ratio of mCYP1A2 (mCYP1A2; 1 day, control 1.5): 1.06
- Protein expression ratio of mCYP1A2 (mCYP1A2; 7 days, control 1.88): 1.83
- Protein expression ratio of mCYP1A2 (mCYP1A2; 14 days, control 2.42): 2.05
- Protein expression ratio of mCYP1A2 (mCYP1A2; 21 days, control 2.20, listed as β-eudesmol, 100 mg/kg): significantly downregulated
- Protein expression ratio of mCYP1A2 (mCYP1A2; 21 days, control 2.20, listed as β‐eudesmol, 100 mg/kg): 1.00
- Dehydronifedipine concentration (mCYP3A11 activity) (mCYP3A11; 1 day, control 6.70): 6.90 µM
- Dehydronifedipine concentration (mCYP3A11 activity) (mCYP3A11; 7 days, control 6.90): 7.5 µM
- Dehydronifedipine concentration (mCYP3A11 activity) (mCYP3A11; 14 days, control 7.55, listed as β-eudesmol, 100 mg/kg): significantly reduced
- Dehydronifedipine concentration (mCYP3A11 activity) (mCYP3A11; 14 days, control 7.55, listed as β‐eudesmol, 100 mg/kg): 4.00 µM
- Dehydronifedipine concentration (mCYP3A11 activity) (mCYP3A11; 21 days, control 7.75, listed as β-eudesmol, 100 mg/kg): significantly reduced
- Dehydronifedipine concentration (mCYP3A11 activity) (mCYP3A11; 21 days, control 7.75, listed as β‐eudesmol, 100 mg/kg): 3.20 µM
